The record followed here is paper PMC9532478, “A Novel CTLA-4 affinity peptide for cancer immunotherapy by increasing the integrin αvβ3 targeting” (Discover. Oncology, 2022).

Data set [1] concerns the target T1, hCTLA-4 protein (Homo sapiens, UniProt P16410).
T1 sequence (P16410 36-223): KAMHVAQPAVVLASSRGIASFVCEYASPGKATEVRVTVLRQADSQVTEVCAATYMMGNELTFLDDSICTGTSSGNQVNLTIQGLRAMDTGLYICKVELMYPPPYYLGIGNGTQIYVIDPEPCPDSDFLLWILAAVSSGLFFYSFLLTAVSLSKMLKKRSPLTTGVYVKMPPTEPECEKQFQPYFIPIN
The data set is described as follows: MST affinity of CTLA-4 binding peptides to hCTLA-4 protein. The conditions noted are these: Monolith NT.115, Red-NHS647 dye-labelled protein, peptides from 400 μmol/L, 16 twofold dilutions, room temperature 5 min. As to the method:
The CTLA-4 binding peptides were first diluted to 400 μmol/L with MST buffer, and twofold serial dilutions were carried out to obtain 16 concentration gradients subsequently. Equal Red-NHS647 dye-labelled protein and peptide volumes were incubated at room temperature for 5 min, the mixture was loaded onto standard capillaries (NanoTemper Technologies GmhH), and immediately placed in an MST instrument for detection. The dissociation constant (Kd) was determined using the NanoTemper analysis software MO. Affinity Analysis v2.2.4.

For another data set, the system named is CT26 tumour. Description: CT26 tumour-bearing mice, peritumoral LC4. The data set is classed as in vivo. As to the method:
BALB/c mice were subcutaneously injected with 2 × 10^5 syngeneic CT26 cells to establish colorectal cancer xenograft model. The mice were divided into control group, LC4 (1 mg / kg) group and LC4 (4 mg / kg) group when the tumor grew to 40–80 mm.^3, peritumoral administration for 14 days. Statistical graph of A tumor volumes and B body weight of LC4 (1 mg / kg) group, LC4 (4 mg / kg) group and control group. Data are expressed as the mean ± SD (n = 5) and statistical significance between groups was determined by Student’s t test: *p < 0.05, ***p < 0.001
Fig. 6 The LC4 activation on T cells was determined in vivo. […] Data are expressed as the mean ± SD (n = 5) and statistical significance between groups was determined by Student’s t test: *p < 0.05, **p < 0.01, ***p < 0.001, ****p < 0.0001; ns = no significance TEXT PRINTED IN THE PICTURE: (A) LC4: Tumor CD3^+CD8^+(%): 6.86 (1mg/kg); Tumor CD3^+CD8^+(%): 19.3 (4mg/kg) | (B) LC4: Spleen CD8^+IFN-γ^+(%): 42.9 (1mg/kg); Spleen CD8^+IFN-γ^+(%): 42.5 (4mg/kg) | (C) LC4: Spleen CD4^+IFN-γ^+(%): 15.6 (1mg/kg); Spleen CD4^+IFN-γ^+(%): 14.2 (4mg/kg) | (D) LC4: DLN CD8^+IFN-γ^+(%): 45.8 (1mg/kg); DLN CD8^+IFN-γ^+(%): 56 (4mg/kg) | (E) LC4: DLN CD4^+IFN-γ^+(%): 2.31 (1mg/kg); DLN CD4^+IFN-γ^+(%): 2.83 (4mg/kg) DOUBTS OF THE COPYIST ABOUT THIS PICTURE: The gate numbers in the flow cytometry plots are printed without a measure or unit. […]

The target in data set [2] is T2, hCTLA-4 protein (human, UniProt P16410 36-161).
T2 construct: human CTLA-4 protein, soluble recombinant protein; The MST methods speak of a 'Red-NHS647 dye-labelled protein' without naming it; also called human CTLA-4 protein
T2 sequence (looked up): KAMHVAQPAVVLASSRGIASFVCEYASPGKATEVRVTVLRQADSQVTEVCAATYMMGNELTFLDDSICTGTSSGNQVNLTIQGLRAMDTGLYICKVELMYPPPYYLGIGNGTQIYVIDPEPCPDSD
Description: MST; Monolith NT.115; peptides first diluted to 400 μmol/L in MST buffer, 16 twofold dilutions; equal volumes of Red-NHS647 dye-labelled protein and peptide, room temperature 5 min, standard capillaries. The conditions noted are these: both partners purified.

Ends that are not written are not given here. Where only a bound is given, the exact number is not on record here.

In general, Kd refers to the equilibrium constant for the complex coming apart. Read a low Kd as higher affinity. Take ASANDNRLRYTY [LC6]: the Kd on hCTLA-4 protein [1] was above 200 µM. On hCTLA-4 protein [1], HHLRIPYALDQT [LC2] returned an equilibrium dissociation constant (Kd) above 200 µM. For the molecule RWKDTAYALTNN [LC1], the Kd at hCTLA-4 protein [1] was above 200 µM. Regarding SHRWQVWSRDRA [LC5], the Kd at hCTLA-4 protein [1] is above 200 µM.

Regarding WGHSHFSHWKGR [LC4], the “effect on weight of mice (in words)” value with CT26 tumour (1 mg/kg/day or 4 mg/kg/day, peritumoral, 14 days, n = 5) was “no significant effect on the weight of mice”. Moreover, the “pathological changes in heart, liver, lung, kidney (H&E staining, in words)” value with CT26 tumour (mouse, in vivo) was “No obvious pathological changes”.

B1: LC4 (peptide)
peptide: WGHSHFSHWKGR
notes: 12-mer selected from the Ph.D.-12 phage display peptide library on hCTLA-4; also called LC4 peptide; source: synthetic peptide (solid phase Fmoc synthesis, RP-HPLC)
On to B1, for which the Kd with hCTLA-4 protein [2] amounted to 6.86 ± 2.63 µM.

B2: LC8 (peptide)
peptide: RHHSSNPRDTAP
notes: 12-mer selected from the Ph.D.-12 phage display peptide library on hCTLA-4; source: synthetic peptide (solid phase Fmoc synthesis, RP-HPLC)
Regarding B2, binding in the data set with hCTLA-4 protein [2] was characterised by a dissociation constant (Kd) of 8.82 ± 0.69 µM.

B3: LC3 (peptide)
peptide: SWHWHTHVRHQM
notes: as for B2
B3: in the data set with hCTLA-4 protein [2], the Kd came out at 0.04 ± 0.01 µM.

B4: LC7 (peptide)
peptide: LDRPSSLAHLAS
notes: as for B2
As to B4, binding with hCTLA-4 protein [2] was put at a Kd of 2.14 ± 0.69 µM.
